# Tests used:
# [1] = tested on: LoVo-Dox; assay: Inhibition of cells growth by colorimetric assay (SRB); details: Homo sapiens, 48 h; for GI50: read-out: GI50 LOVO-DOX; for CC50: read-out: LC50 LOVO-DOX; for IC (TGI): read-out: TGI LOVO-DOX
# Method in brief: (§1)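 Colorimetric SRB read (490 nm) on triplicate wells after 48 h at 37 °C, 5% CO2. Dose range 10 to 10^−8 μg/ml; 5×10^3 cells/well pre-attached 18 h.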
# [2] = tested on: K-562; assay: as above; details: Homo sapiens, K562, 48 h; for GI50: read-out: GI50 K562; for CC50: read-out: LC50 K562; for IC (TGI): read-out: TGI K562
# Method in brief: as §1
# [3] = tested on: PANC-1; assay: as above; details: Homo sapiens, PANC-1, 48 h; for GI50: read-out: GI50 PANC-1; for CC50: read-out: LC50 PANC-1; for IC (TGI): read-out: TGI PANC-1
# Method in brief: as §1
# [4] = tested on: SK-MEL-28; assay: as above; details: Homo sapiens, SK-MEL-28, 48 h; for GI50: read-out: GI50 MEL-28; for CC50: read-out: LC50 MEL-28; for IC (TGI): read-out: TGI MEL-28
# Method in brief: as §1
# [5] = tested on: HeLa; assay: as above; details: Homo sapiens, HeLa, 48 h; for GI50: read-out: GI50 HELA; for CC50: read-out: LC50 HELA; for IC (TGI): read-out: TGI HELA
# Method in brief: as §1
# [6] = tested on: IGROV-1; assay: as above; details: Homo sapiens, IGROV-1, 48 h; for GI50: read-out: GI50 IGROV; for CC50: read-out: LC50 IGROV; for IC (TGI): read-out: TGI IGROV
# Method in brief: as §1
# [7] = tested on: SK-BR-3; assay: as above; details: Homo sapiens, SK-BR-3, 48 h; for GI50: read-out: GI50 SK-BR3; for CC50: read-out: LC50 SK-BR3; for IC (TGI): read-out: TGI SK-BR3
# Method in brief: as §1
# [8] = tested on: DU-145; assay: as above; details: Homo sapiens, DU-145, 48 h; for GI50: read-out: GI50 DU145; for CC50: read-out: LC50 DU145; for IC (TGI): read-out: TGI DU145
# Method in brief: as §1
# [9] = tested on: IGROV-ET; assay: as above; details: Homo sapiens, 48 h; for GI50: read-out: GI50 IGROV-ET; for CC50: read-out: LC50 IGROV-ET; for IC (TGI): read-out: TGI IGROV-ET
# Method in brief: as §1
# [10] = tested on: HeLa-APL; assay: as above; details: Homo sapiens, 48 h; for GI50: read-out: GI50 HELA-APL; for CC50: read-out: LC50 HELA-APL; for IC (TGI): read-out: TGI HELA-APL
# Method in brief: as §1
# [11] = tested on: LNCaP; assay: as above; details: Homo sapiens, LNCaP, 48 h; for GI50: read-out: GI50 LNCAP; for CC50: read-out: LC50 LNCAP; for IC (TGI): read-out: TGI LNCAP
# Method in brief: as §1
# [12] = tested on: HT-29; assay: cells; details: Homo sapiens, HT-29, 48 h; for GI50: read-out: GI50 HT29; for CC50: read-out: LC50 HT29; for IC (TGI): read-out: TGI HT29
# Method in brief: as §1
# [13] = tested on: A-549; assay: cells; details: Homo sapiens, A549, 48 h; for GI50: read-out: GI50 A549; for CC50: read-out: LC50 A549; for IC (TGI): read-out: TGI A549
# Method in brief: as §1
# [14] = tested on: LoVo; assay: cells; details: Homo sapiens, LoVo, 48 h; for GI50: read-out: GI50 LOVO; for CC50: read-out: LC50 LOVO; for IC (TGI): read-out: TGI LOVO
# Method in brief: as §1
smiles,measurement,setting,value
C=CCOc1c(C)c2c(c3c1CC1[C@H]4c5c(cc(C)c(OC)c5O)C[C@@H]([C@H](C#N)N1[C@H]3CO)N4C)OCO2 (stereo partly drawn) [compound 2],GI50,[1],924 nM
same,CC50,[1],19200 nM
same,IC (TGI),[1],19200 nM
same,GI50,[2],516 nM
same,CC50,[2],4790 nM
same,IC (TGI),[2],1220 nM
same,GI50,[3],890 nM
same,CC50,[3],19200 nM
same,IC (TGI),[3],3260 nM
same,GI50,[4],598 nM
same,CC50,[4],5310 nM
same,IC (TGI),[4],1270 nM
same,GI50,[5],763 nM
same,CC50,[5],9800 nM
same,IC (TGI),[5],1450 nM
same,GI50,[6],926 nM
same,CC50,[6],18200 nM
same,IC (TGI),[6],2260 nM
same,GI50,[7],778 nM
same,CC50,[7],19200 nM
same,IC (TGI),[7],1750 nM
same,GI50,[8],897 nM
same,CC50,[8],19200 nM
same,IC (TGI),[8],3130 nM
same,GI50,[9],1060 nM
same,CC50,[9],19200 nM
same,IC (TGI),[9],19200 nM
same,GI50,[10],479 nM
same,CC50,[10],1490 nM
same,IC (TGI),[10],844 nM
same,GI50,[11],592 nM
same,CC50,[11],2760 nM
same,IC (TGI),[11],1110 nM
same,GI50,[12],1060 nM
same,CC50,[12],19200 nM
same,IC (TGI),[12],14200 nM
same,GI50,[13],633 nM
same,CC50,[13],9110 nM
same,IC (TGI),[13],1390 nM
same,GI50,[14],533 nM
same,CC50,[14],1920 nM
same,IC (TGI),[14],1070 nM
C=CCN1[C@@H]2c3c(cc(C)c(OC)c3O)C[C@H]1[C@H](C#N)N1C2[C@@H]2SCC(N)C(=O)OC[C@H]1c1c3c(c(C)c(OC(C)=O)c12)OCO3 (stereo partly drawn) [compound 12],GI50,[1],504 nM
same,CC50,[1],12200 nM
same,IC (TGI),[1],971 nM
same,GI50,[2],110 nM
same,CC50,[2],15400 nM
same,IC (TGI),[2],2510 nM
same,GI50,[3],472 nM
same,CC50,[3],4070 nM
same,IC (TGI),[3],953 nM
same,GI50,[4],350 nM
same,CC50,[4],1030 nM
same,IC (TGI),[4],603 nM
same,GI50,[5],344 nM
same,CC50,[5],1120 nM
same,IC (TGI),[5],621 nM
same,GI50,[6],225 nM
same,CC50,[6],1050 nM
same,IC (TGI),[6],486 nM
same,GI50,[7],256 nM
same,CC50,[7],979 nM
same,IC (TGI),[7],501 nM
same,GI50,[8],535 nM
same,CC50,[8],4220 nM
same,IC (TGI),[8],1020 nM
same,GI50,[9],635 nM
same,CC50,[9],3820 nM
same,IC (TGI),[9],1070 nM
same,GI50,[10],244 nM
same,CC50,[10],914 nM
same,IC (TGI),[10],472 nM
same,GI50,[11],82.5 nM
same,CC50,[11],711 nM
same,IC (TGI),[11],251 nM
same,GI50,[12],503 nM
same,CC50,[12],15400 nM
same,IC (TGI),[12],1270 nM
same,GI50,[13],338 nM
same,CC50,[13],1160 nM
same,IC (TGI),[13],624 nM
same,GI50,[14],399 nM
same,CC50,[14],3210 nM
same,IC (TGI),[14],808 nM

# From US7767659B2, “Synthesis of naturally occurring ecteinascidins and related compounds” (Pharma Mar, S.A., priority 2002, dated 2010)
